According to PubChem BioAssay AID330 (DTP/NCI, 2004):
Several values for one entry are separate records, joined by “and”; a condition that tells them apart may be missing. Equal values may be shown once. Inconclusive results and toxic doses are left out.

System: P388 leukemia ip, CD2F1 mice, survival T/C
Assay: NCI In Vivo Anticancer Drug Screen. Data for tumor model P388 Leukemia (intraperitoneal) in CD2F1 (CDF1) mice
Conditions: endpoint: median survival time, higher = longer survival
Method in brief: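 Mice carrying the transplanted tumor received test compound or vehicle. Survival was recorded in each group, and the value is the treated-group measurement divided by that of the vehicle-treated control group.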

[1] = dose: 25.0 mg/kg/injection, schedule: Q01DX009 (ip), vehicle: water
[2] = dose: 50.0 mg/kg/injection, schedule: Q01DX009 (ip), vehicle: water
[3] = dose: 200.0 mg/kg/injection, schedule: Q01DX009 (ip), vehicle: water
[4] = dose: 400.0 mg/kg/injection, schedule: Q01DX009 (ip), vehicle: water
[5] = dose: 100.0 mg/kg/injection, schedule: Q04DX002 (ip), vehicle: saline with Tween-80
[6] = dose: 200.0 mg/kg/injection, schedule: Q04DX002 (ip), vehicle: saline with Tween-80
[7] = dose: 60.0 mg/kg/injection, schedule: Q01DX005 (ip), vehicle: saline with Tween-80
[8] = dose: 120.0 mg/kg/injection, schedule: Q01DX005 (ip), vehicle: saline with Tween-80
[9] = dose: 50.0 mg/kg/injection, schedule: Q01DX009 (ip), vehicle: saline with Tween-80
[10] = dose: 100.0 mg/kg/injection, schedule: Q01DX009 (ip), vehicle: saline with Tween-80
[11] = dose: 200.0 mg/kg/injection, schedule: Q01DX009 (ip), vehicle: saline with Tween-80
[12] = dose: 50.0 mg/kg/injection, schedule: Q01DX005 (ip), vehicle: Klucel + Tween-80
[13] = dose: 100.0 mg/kg/injection, schedule: Q01DX005 (ip), vehicle: Klucel + Tween-80
[14] = dose: 200.0 mg/kg/injection, schedule: Q01DX005 (ip), vehicle: Klucel + Tween-80
[15] = dose: 12.5 mg/kg/injection, schedule: Q01DX009 (ip), vehicle: Klucel (hydroxypropylcellulose) (HPC)
[16] = dose: 25.0 mg/kg/injection, schedule: Q01DX009 (ip), vehicle: Klucel (hydroxypropylcellulose) (HPC)
[17] = dose: 50.0 mg/kg/injection, schedule: Q01DX005 (ip), vehicle: Klucel (hydroxypropylcellulose) (HPC)
[18] = dose: 100.0 mg/kg/injection, schedule: Q01DX005 (ip), vehicle: Klucel (hydroxypropylcellulose) (HPC)
[19] = dose: 50.0 mg/kg/injection, schedule: Q01DX009 (ip), vehicle: Klucel (hydroxypropylcellulose) (HPC)
[20] = dose: 100.0 mg/kg/injection, schedule: Q01DX009 (ip), vehicle: Klucel (hydroxypropylcellulose) (HPC)
[21] = dose: 200.0 mg/kg/injection, schedule: Q01DX009 (ip), vehicle: Klucel (hydroxypropylcellulose) (HPC)
[22] = dose: 240.0 mg/kg/injection, schedule: Q01DX005 (ip), vehicle: saline with Tween-80

OCC1OC2OC3C(CO)OC(OC4C(CO)OC(OC5C(CO)OC(OC6C(CO)OC(OC7C(CO)OC(OC1C(O)C2O)C(O)C7O)C(O)C6O)C(O)C5O)C(O)C4O)C(O)C3O (configuration not stated) (tested in a mixture with another compound)
T/C (dose: 3.12 mg/kg/injection, schedule: Q01DX009 (ip), vehicle: water): 105 % of control | T/C (dose: 6.25 mg/kg/injection, schedule: Q01DX009 (ip), vehicle: water): 108 % of control | T/C (dose: 12.5 mg/kg/injection, schedule: Q01DX009 (ip), vehicle: water): 105 % of control | T/C [1]: 122 % of control and 111 % of control and 115 % of control | T/C [2]: 109 % of control and 111 % of control and 123 % of control | T/C [3]: 164 % of control | T/C [4]: 250 % of control

CN1C(c2ccccc2)C2CSCC(C1c1ccccc1)C21NC(=O)NC1=O (configuration not stated)
T/C (dose: 100.0 mg/kg/injection, schedule: Q01DX001 (ip), vehicle: saline with Tween-80): 104 % of control | T/C (dose: 200.0 mg/kg/injection, schedule: Q01DX001 (ip), vehicle: saline with Tween-80): 100 % of control | T/C (dose: 400.0 mg/kg/injection, schedule: Q01DX001 (ip), vehicle: saline with Tween-80): 97 % of control

CC(C)N[C@@H]1CCC[C@H]1O
T/C (dose: 100.0 mg/kg/injection, schedule: Q01DX001 (ip), vehicle: Klucel (hydroxypropylcellulose) (HPC)): 105 % of control | T/C (dose: 200.0 mg/kg/injection, schedule: Q01DX001 (ip), vehicle: Klucel (hydroxypropylcellulose) (HPC)): 113 % of control | T/C (dose: 400.0 mg/kg/injection, schedule: Q01DX001 (ip), vehicle: Klucel (hydroxypropylcellulose) (HPC)): 115 % of control

O=C(Nc1ccc(S(=O)(=O)O)cc1)c1ccc([N+](=O)[O-])cc1
T/C (dose: 100.0 mg/kg/injection, schedule: Q01DX009 (ip), vehicle: saline): 100 % of control | T/C (dose: 400.0 mg/kg/injection, schedule: Q01DX009 (ip), vehicle: saline): 109 % of control

Clc1ccc2c(ccc3cccnc32)n1
T/C (dose: 50.0 mg/kg/injection, schedule: Q04DX002 (ip), vehicle: saline with Tween-80): 100 % of control | T/C [5]: 97 % of control | T/C [6]: 94 % of control

CC(C)(C)OP(=O)(O)OC(C)(C)C
T/C [1]: 103 % of control | T/C [2]: 100 % of control | T/C (dose: 100.0 mg/kg/injection, schedule: Q01DX009 (ip), vehicle: water): 107 % of control | T/C [3]: 107 % of control | T/C [4]: 112 % of control

CCCCCCCCC#CCO
T/C [7]: 86 % of control | T/C [8]: 86 % of control

CCCCOC(=S)Nc1ccccc1
T/C (dose: 50.0 mg/kg/injection, schedule: Q01DX009 (ip), vehicle: saline + Tween-80 + alcohol): 99 % of control | T/C [9]: 104 % of control | T/C (dose: 100.0 mg/kg/injection, schedule: Q01DX009 (ip), vehicle: saline + Tween-80 + alcohol): 108 % of control | T/C [10]: 100 % of control | T/C (dose: 200.0 mg/kg/injection, schedule: Q01DX009 (ip), vehicle: saline + Tween-80 + alcohol): 98 % of control | T/C [11]: 98 % of control | T/C (dose: 400.0 mg/kg/injection, schedule: Q01DX009 (ip), vehicle: saline + Tween-80 + alcohol): 97 % of control | T/C (dose: 400.0 mg/kg/injection, schedule: Q01DX009 (ip), vehicle: saline with Tween-80): 110 % of control

COc1ccc2nc3cc(Cl)ccc3c(Nc3ccc(NC(C)=O)cc3)c2n1
T/C (dose: 6.25 mg/kg/injection, schedule: Q01DX009 (ip), vehicle: other): 106 % of control | T/C (dose: 12.5 mg/kg/injection, schedule: Q01DX009 (ip), vehicle: other): 102 % of control | T/C (dose: 25.0 mg/kg/injection, schedule: Q01DX009 (ip), vehicle: other): 100 % of control | T/C (dose: 50.0 mg/kg/injection, schedule: Q01DX009 (ip), vehicle: other): 96 % of control | T/C (dose: 100.0 mg/kg/injection, schedule: Q01DX009 (ip), vehicle: other): 99 % of control

Cc1cc2c(cc1C)NC1C(=O)C(c3ccccc3Cl)OC1=N2 (configuration not stated)
T/C [12]: 92 % of control | T/C [13]: 94 % of control | T/C [14]: 91 % of control

N#CC1=CN(Cc2ccc3c(c2)OCO3)C=CC1
T/C [12]: 100 % of control | T/C [13]: 98 % of control | T/C [14]: 92 % of control

NC(=O)C1CCC(c2ccccc2)(c2ccccc2)C1=O (configuration not stated)
T/C [5]: 99 % of control | T/C [6]: 105 % of control | T/C (dose: 400.0 mg/kg/injection, schedule: Q04DX002 (ip), vehicle: saline with Tween-80): 101 % of control

O=[N+]([O-])c1ccc2nccc(Cl)c2c1
T/C [15]: 95 % of control | T/C [16]: 100 % of control

Cc1cc2ccccc2c[n+]1[O-]
T/C [17]: 97 % of control | T/C [18]: 112 % of control

c1ccc(-c2nn(-c3ccccc3)[n+](-c3ccccc3-c3ccccc3)n2)cc1
T/C (dose: 5.0 mg/kg/injection, schedule: Q01DX009 (ip), vehicle: saline): 109 % of control and 114 % of control | T/C (dose: 10.0 mg/kg/injection, schedule: Q01DX009 (ip), vehicle: saline): 120 % of control | T/C (dose: 20.0 mg/kg/injection, schedule: Q01DX009 (ip), vehicle: saline): 121 % of control

COc1ccc(C2=[N+]([O-])C(C)(C)C(c3ccccc3)C2)cc1 (configuration not stated)
T/C [19]: 97 % of control | T/C [20]: 101 % of control | T/C [21]: 100 % of control

O=Cc1ccco1
T/C [9]: 99 % of control | T/C [10]: 101 % of control | T/C [11]: 118 % of control

Cc1ccccc1N1CC2CC3C=CC2(C1)O3 (configuration not stated)
T/C [7]: 104 % of control | T/C [8]: 97 % of control | T/C [22]: 97 % of control

N#CCc1nc2ccccc2nc1Cl
T/C (dose: 50.0 mg/kg/injection, schedule: Q01DX009 (ip), vehicle: distilled water + Tween-80 + alcohol): 100 % of control | T/C (dose: 100.0 mg/kg/injection, schedule: Q01DX009 (ip), vehicle: distilled water + Tween-80 + alcohol): 94 % of control

COc1ccc(N2CC[N+](c3ccc(N(C)C)cc3)=C2C2=[N+](c3ccc(N(C)C)cc3)CCN2c2ccc(OC)cc2)cc1
T/C [15]: 91 % of control | T/C [16]: 91 % of control | T/C [19]: 91 % of control

CNNCCCCC(=O)NC(C)C
T/C [16]: 97 % of control | T/C [19]: 98 % of control | T/C [20]: 97 % of control

O=C(c1ccccc1)c1c(-c2ccccc2)c(C(=O)c2ccccc2)n2ccccc12
T/C [19]: 108 % of control | T/C [20]: 105 % of control | T/C [21]: 93 % of control

Cc1nc(C)c2c(C)[nH]c(-c3ccccc3)c2n1
T/C (dose: 25.0 mg/kg/injection, schedule: Q04DX002 (ip), vehicle: Klucel (hydroxypropylcellulose) (HPC)): 102 % of control | T/C (dose: 50.0 mg/kg/injection, schedule: Q04DX002 (ip), vehicle: Klucel (hydroxypropylcellulose) (HPC)): 101 % of control | T/C (dose: 100.0 mg/kg/injection, schedule: Q04DX002 (ip), vehicle: Klucel (hydroxypropylcellulose) (HPC)): 108 % of control | T/C (dose: 200.0 mg/kg/injection, schedule: Q04DX002 (ip), vehicle: Klucel (hydroxypropylcellulose) (HPC)): 104 % of control

CCN(CC)C(=O)N1C=CC(c2ccccc2)C=C1
T/C [7]: 103 % of control | T/C [8]: 106 % of control | T/C [22]: 108 % of control

CCOC(=O)c1sc(C(=O)OCC)c2c1-c1cccc3cccc-2c13
T/C [7]: 100 % of control | T/C [8]: 99 % of control | T/C [22]: 97 % of control

Nn1c(-c2nn[nH]n2)nnc1-c1nn[nH]n1
T/C (dose: 25.0 mg/kg/injection, schedule: Q01DX005 (ip), vehicle: Klucel (hydroxypropylcellulose) (HPC)): 100 % of control | T/C [17]: 100 % of control | T/C [18]: 95 % of control

C(=C\c1cc2cc(C3=NCCN3)ccc2[nH]1)/c1ccc(C2=NCCN2)cc1
T/C (dose: 6.25 mg/kg/injection, schedule: Q04DX003 (ip), vehicle: saline): 107 % of control and 108 % of control | T/C (dose: 12.5 mg/kg/injection, schedule: Q04DX003 (ip), vehicle: saline): 117 % of control and 119 % of control

CCN(CC)C(=S)SCc1cc(C)c(O)c(C)c1
T/C (dose: 100.0 mg/kg/injection, schedule: Q01DX001 (ip), vehicle: saline): 98 % of control | T/C (dose: 200.0 mg/kg/injection, schedule: Q01DX001 (ip), vehicle: saline): 100 % of control | T/C (dose: 400.0 mg/kg/injection, schedule: Q01DX001 (ip), vehicle: saline): 100 % of control
